target: human PAD4 (hPAD4) (Homo sapiens, UniProt Q9UM07); assay: RFMS Human PAD4 Functional Assay; format: biochemical; conditions: hPAD4 RFMS IC50, human PAD4, rapid-fire mass spectrum (RFMS) assay; 5 nM hPAD4, 250 μM BAEE
Outline: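 RapidFire ESI-MS quantification, normalised to a modified-citrulline internal standard, after phenyl glyoxal (final 4 mM) derivatisation of the TCA-quenched reaction. The enzyme (10 nM) sat 30 min with compound (up to 50 μM final) before 500 μM BAEE (as added) started a 90 min, 37 °C reaction. Buffer: HEPES pH 7.5, 50 μM calcium, 5 μM TPEN.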

Sequence of human PAD4 (hPAD4) (Q9UM07 whole entry): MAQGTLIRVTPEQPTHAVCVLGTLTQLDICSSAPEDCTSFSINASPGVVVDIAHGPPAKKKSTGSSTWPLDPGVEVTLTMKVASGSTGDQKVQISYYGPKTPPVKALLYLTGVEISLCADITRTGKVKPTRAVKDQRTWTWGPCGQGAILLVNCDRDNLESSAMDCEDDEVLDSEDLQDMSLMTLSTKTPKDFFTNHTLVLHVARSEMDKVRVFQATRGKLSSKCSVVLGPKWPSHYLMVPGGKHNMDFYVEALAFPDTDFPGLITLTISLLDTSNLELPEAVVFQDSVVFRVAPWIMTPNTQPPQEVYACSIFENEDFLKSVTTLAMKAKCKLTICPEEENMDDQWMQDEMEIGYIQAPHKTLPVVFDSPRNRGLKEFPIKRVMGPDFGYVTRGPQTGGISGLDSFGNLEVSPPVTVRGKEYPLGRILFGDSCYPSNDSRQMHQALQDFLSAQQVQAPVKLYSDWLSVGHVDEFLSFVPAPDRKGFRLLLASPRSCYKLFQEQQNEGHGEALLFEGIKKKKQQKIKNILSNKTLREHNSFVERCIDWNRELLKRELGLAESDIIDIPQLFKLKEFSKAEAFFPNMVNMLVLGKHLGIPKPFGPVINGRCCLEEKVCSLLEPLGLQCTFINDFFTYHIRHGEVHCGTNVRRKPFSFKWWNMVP

Row | Compound | IC50 [nM]
1 | COc1cc(C(=O)N2C[C@H]3CC[C@@H]2[C@@H]3N)cc2nc(-c3cc4cccc(C5CC(N)C5)c4n3CC3CC3)n(C)c12 (stereo partly drawn) [Example 9, (1R,4R,7R)-2-{2-[7-(3-aminocyclobutyl)-1-(cyclopropylmethyl)-1H-indol-2-yl]-7-methoxy-1-methyl-1H-1,3-benzodiazole-5-carbonyl}-2-azabicyclo[2.2.1]heptan-7-amine] | 40
2 | COc1cc(C(=O)N2C[C@H]3CC[C@@H]2[C@@H]3N)cc2nc(-c3cc4cccc(C5CCN(C(=O)COCC(F)(F)F)CC5)c4n3CC3CC3)n(C)c12 [Example 232, 1-(4-(2-(5-((1R,4R,7R)-7-amino-2-azabicyclo[2.2.1]heptane-2-carbonyl)-7-methoxy-1-methyl-1H-benzo[d]imidazol-2-yl)-1-(cyclopropylmethyl)-1H-indol-7-yl)piperidin-1-yl)-2-(2,2,2-trifluoroethoxy)ethan-1-one] | 19
3 | COc1cc(C(=O)N2C[C@H]3CC[C@@H]2[C@@H]3N)cc2nc(-c3cc4cccc(-c5cn[nH]c5)c4n3CC3CC3)n(C)c12 [Example 137, ((1R,4R,7R)-7-amino-2-azabicyclo[2.2.1]heptan-2-yl)(2-(1-(cyclopropylmethyl)-7-(1H-pyrazol-4-yl)-1H-indol-2-yl)-7-methoxy-1-methyl-1H-benzo[d]imidazol-5-yl)methanone] | 37
4 | COCCCC(=O)N1CCC(c2cccc3cc(-c4nc5cc(C(=O)N6C[C@H]7CC[C@@H]6[C@@H]7N)cc(OC)c5n4C)n(CC4CC4)c23)CC1 [Example 237, 1-(4-(2-(5-((1R,4R,7R)-7-amino-2-azabicyclo[2.2.1]heptane-2-carbonyl)-7-methoxy-1-methyl-1H-benzo[d]imidazol-2-yl)-1-(cyclopropylmethyl)-1H-indol-7-yl)piperidin-1-yl)-4-methoxybutan-1-one] | 18
5 | COc1cc(C(=O)N2CC3CCC2[C@@H]3N)cc2nc(-c3cc4cccc(-c5cccc(CO)c5)c4n3CC3CC3)n(C)c12 (stereo partly drawn) [Example 136, ((7R)-7-amino-2-azabicyclo[2.2.1]heptan-2-yl)(2-(1-(cyclopropylmethyl)-7-(3-(hydroxymethyl)phenyl)-1H-indol-2-yl)-7-methoxy-1-methyl-1H-benzo[d]imidazol-5-yl)methanone] | 77
6 | COc1cc(C(=O)N2C[C@H]3CC[C@@H]2[C@@H]3N)cc2nc(-c3cc4cccc(CCCN)c4n3CC3CC3)n(C)c12 [Example 11, (1R,4R,7R)-2-{2-[7-(3-aminopropyl)-1-(cyclopropylmethyl)-1H-indol-2-yl]-7-methoxy-1-methyl-1H-1,3-benzodiazole-5-carbonyl}-2-azabicyclo[2.2.1]heptan-7-amine] | 48
7 | CCOC(=O)c1ccc(Nc2cccc3cc(-c4nc5cc(C(=O)N6CC7CCC6[C@@H]7N)cc(OC)c5n4C)n(CC4CC4)c23)cc1 (stereo partly drawn) [Example 162, ethyl 4-((2-(5-((7R)-7-amino-2-azabicyclo[2.2.1]heptane-2-carbonyl)-7-methoxy-1-methyl-1H-benzo[d]imidazol-2-yl)-1-(cyclopropylmethyl)-1H-indol-7-yl)amino)benzoate] | 98
8 | COc1cc(C(=O)N2C[C@H]3CC[C@@H]2[C@@H]3N)cc2nc(-c3cc4cccc(C5(O)CCC5)c4n3CC3CC3)n(C)c12 [Example 218, ((1R,4R,7R)-7-amino-2-azabicyclo[2.2.1]heptan-2-yl)(2-(1-(cyclopropylmethyl)-7-(1-hydroxycyclobutyl)-1H-indol-2-yl)-7-methoxy-1-methyl-1H-benzo[d]imidazol-5-yl)methanone] | 57
9 | COc1cc(C(=O)N2C[C@H]3CC[C@@H]2[C@@H]3N)cc2nc(-c3cc4cccc(C5CN(C(=O)c6ccccc6)C5)c4n3CC3CC3)n(C)c12 [Example 74, (1R,4R,7R)-2-{2-[7-(1-benzoylazetidin-3-yl)-1-(cyclopropylmethyl)-1H-indol-2-yl]-7-methoxy-1-methyl-1H-1,3-benzodiazole-5-carbonyl}-2-azabicyclo[2.2.1]heptan-7-amine] | 71

Second part, the compound after the results:

Row | IC50 [nM] | Compound
10 | 170 | COc1cc(C(=O)N2C[C@H]3CC[C@@H]2[C@@H]3N)cc2nc(-c3cc4cccc(C5CC(C(=O)O)C5)c4n3CC3CC3)n(C)c12 (single isomer, unassigned) [Example 56]
11 | 15 | COc1cc(C(=O)N2C[C@H]3CC[C@@H]2[C@@H]3N)cc2nc(-c3cc4cccc(C5CCN(C(=O)CO)CC5)c4n3CC3CC3)n(C)c12 [Example 240, 1-(4-(2-(5-((1R,4R,7R)-7-amino-2-azabicyclo[2.2.1]heptane-2-carbonyl)-7-methoxy-1-methyl-1H-benzo[d]imidazol-2-yl)-1-(cyclopropylmethyl)-1H-indol-7-yl)piperidin-1-yl)-2-hydroxyethan-1-one]
12 | 112 | COc1cc(C(=O)N2C[C@H]3CC[C@@H]2[C@@H]3N)cc2nc(-c3cc4cccc(C5CCN(C(=O)C6CC6)CC5)c4n3CC3CC3)n(C)c12 [Example 225, (4-(2-(5-((1R,4R,7R)-7-amino-2-azabicyclo[2.2.1]heptane-2-carbonyl)-7-methoxy-1-methyl-1H-benzo[d]imidazol-2-yl)-1-(cyclopropylmethyl)-1H-indol-7-yl)piperidin-1-yl)(cyclopropyl)metha-none]
13 | 194 | COc1cc(C(=O)N2CC3CCC2[C@@H]3N)cc2nc(-c3cc4cccc(-c5ccoc5)c4n3CC3CC3)n(C)c12 (stereo partly drawn) [Example 129, ((7R)-7-amino-2-azabicyclo[2.2.1]heptan-2-yl)(2-(1-(cyclopropylmethyl)-7-(furan-3-yl)-1H-indol-2-yl)-7-methoxy-1-methyl-1H-benzo[d]imidazol-5-yl)methanone]
14 | 46 | COc1cc(C(=O)N2C[C@H]3CC[C@@H]2[C@@H]3N)cc2nc(-c3cc4cccc(-c5cn[nH]c5)c4n3CC3CC3(F)F)n(C)c12 (stereo partly drawn) [Example 150, ((1R,4R,7R)-7-amino-2-azabicyclo[2.2.1]heptan-2-yl)(2-(1-((2,2-difluorocyclopropyl)meth-yl)-7-(1H-pyrazol-4-yl)-1H-indol-2-yl)-7-methoxy-1-methyl-1H-benzo[d]imidazol-5-yl)methanone]
15 | 35 | COc1cc(C(=O)N2C[C@H]3CC[C@@H]2[C@@H]3N)cc2nc(-c3cc4cccc(-c5ccc6c(c5)C(=O)NC6)c4n3CC3CC3)n(C)c12 [Example 98, 6-(2-{5-[(1R,4R,7R)-7-amino-2-azabicyclo[2.2.1]heptane-2-carbonyl]-7-methoxy-1-methyl-1H-1,3-benzodiazol-2-yl}-1-(cyclopropylmethyl)-1H-indol-7-yl)-2,3-dihydro-1H-isoindol-1-one]
16 | 58 | COc1cc(C(=O)N2C[C@H]3CC[C@@H]2[C@@H]3N)cc2nc(-c3cc4cccc(C5CCN(C(=O)NC(C)C)CC5)c4n3CC3CC3)n(C)c12 [Example 252, 4-(2-(5-((1R,4R,7R)-7-amino-2-azabicyclo[2.2.1]heptane-2-carbonyl)-7-methoxy-1-methyl-1H-benzo[d]imidazol-2-yl)-1-(cyclopropylmethyl)-1H-indol-7-yl)-N-isopropylpiperidine-1-carboxamide]
17 | 90 | COc1cc(C(=O)N2C[C@H]3CC[C@@H]2[C@@H]3N)cc2nc(-c3cc4cccc(CCC#N)c4n3CC3CC3)n(C)c12 [Example 19, 3-(2-{5-[(1R,4R,7R)-7-amino-2-azabicyclo[2.2.1]heptane-2-carbonyl]-7-methoxy-1-methyl-1H-1,3-benzodiazol-2-yl}-1-(cyclopropylmethyl)-1H-indol-7-yl)propanenitrile]
18 | 38 | COc1cc(C(=O)N2C[C@H]3CC[C@@H]2[C@@H]3N)cc2nc(-c3cc4cccc(-c5ccc6c(c5)CCC(=O)N6)c4n3CC3CC3)n(C)c12 [Example 99, 6-(2-{5-[(1R,4R,7R)-7-amino-2-azabicyclo[2.2.1]heptane-2-carbonyl]-7-methoxy-1-methyl-1H-1,3-benzodiazol-2-yl}-1-(cyclopropylmethyl)-1H-indol-7-yl)-1,2,3,4-tetrahydroquinolin-2-one]
19 | 10 | COc1cc(C(=O)N2C[C@H]3CC[C@@H]2[C@@H]3N)cc2nc(-c3cc4cccc(C5CN(C(=O)CO)C5)c4n3CC3CC3)n(C)c12 [Example 82, 1-[3-(2-{5-[(1R,4R,7R)-7-amino-2-azabicyclo[2.2.1]heptane-2-carbonyl]-7-methoxy-1-methyl-1H-1,3-benzodiazol-2-yl}-1-(cyclopropylmethyl)-1H-indol-7-yl)azetidin-1-yl]-2-hydroxyethan-1-one]

same assay, conditions: human PAD4, rapid-fire mass spectrum (RFMS) assay; 5 nM hPAD4, 250 μM BAEE; read-out: hPAD4 RFMS IC50

Row | IC50 [nM] | Compound
20 | 18 | COc1cc(C(=O)N2C[C@H](N)C[C@@H](F)C2)cc2nc(-c3cc4cccc(C5CCN(C(C)=O)CC5)c4n3CC3CC3)n(Cc3cnn(C)c3)c12 [Example 189, 1-(4-(2-(5-((3R,5R)-3-amino-5-fluoropiperidine-1-carbonyl)-7-methoxy-1-((1-methyl-1H-pyrazol-4-yl)methyl)-1H-benzo[d]imidazol-2-yl)-1-(cyclopropylmethyl)-1H-indol-7-yl)piperidin-1-yl)ethan-1-one]
21 | 191 | COc1cc(C(=O)N2C[C@H]3CC[C@@H]2[C@@H]3N)cc2nc(-c3cc4cccc(Nc5ccccc5CO)c4n3CC3CC3)n(C)c12 [compound 182, ((1R,4R,7R)-7-amino-2-azabicyclo[2.2.1]heptan-2-yl)(2-(1-(cyclopropylmethyl)-7-((2-(hydroxymethyl)phenyl)amino)-1H-indol-2 yl)-7-methoxy-1-methyl-1H-benzo[d]imidazol-5-yl)methanone]
22 | 18 | COc1cc(C(=O)N2C[C@H]3CC[C@@H]2[C@@H]3N)cc2nc(-c3cc4cccc(C5CCN(C(=O)Nc6ccccc6)CC5)c4n3CC3CC3)n(C)c12 [Example 187, 4-(2-(5-((1R,4R,7R)-7-amino-2-azabicyclo[2.2.1]heptane-2-carbonyl)-7-methoxy-1-methyl-1H-benzo[d]imidazol-2-yl)-1-(cyclopropylmethyl)-1H-indol-7-yl)-N-phenylpiperidine-1-carboxamide]

From patent US20220402950A1, “SUBSTITUTED BENZIMIDAZOLES AS PAD4 INHIBITORS” (BRISTOL-MYERS SQUIBB COMPANY, priority 2018, published 2022)
